Results reported in article PMC11675744, “Grape Pomace as a Source of Phenolics for the Inhibition of Starch Digestion Enzymes: A Comparative Study and Standardization of the Efficacy” (Foods, 2024).

Target: T1, rat intestinal α-glucosidase
T1 construct: gene Mgam; crude supernatant of rat intestinal acetone powder (Sigma N1377-5G), brush border enzymes, not purified
Assay: p-nitrophenol release, absorbance […] nm, five-point dose-response
Type: biochemical
Conditions: substrate p-nitrophenyl α-D-glucoside (1 mM stock, 200 µL in 1 mL), phosphate pH 6.8, 37 °C, 5 min pre-incubation; crude extract

I50: 100 µg/mL
Compound: C[C@H]1O[C@H](O[C@H]2[C@H](O)[C@@H](O)[C@@H](O[C@H]3[C@H](O)[C@@H](O)C(O)O[C@@H]3CO)O[C@@H]2CO)[C@H](O)[C@@H](O)[C@@H]1N[C@H]1C=C(CO)[C@@H](O)[C@H](O)[C@H]1O (stereo partly shown) [acarbose]
